Data taken from US20230233576A1, “ECLITASERTIB FOR USE IN TREATING CONDITIONS INVOLVING SYSTEMIC HYPERINFLAMMATORY RESPONSE” (priority 2020, published 2023).

System: adult participants hospitalized for severe COVID-19
Assay: Phase 1b severe COVID-19 study: oxygenation (SpO2, SpO2/FiO2 ratio, days without oxygen support, VFD, RFFD)
Type: in vivo, human
Conditions: for Change from baseline in SpO2/FiO2 ratio, point estimate / Change from baseline in SpO2/FiO2 ratio, adjusted treatment difference RIPK1 Inhibitor vs placebo: MMRM, LOCF; for median change from baseline in SpO2/FiO2 ratio: observed data; for median change in SpO2/FiO2 ratio from baseline: LOCF imputation
Description: This study was a multinational, multi-center, double-blind, 2:1 randomized (RIPK1 Inhibitor to placebo), placebo-controlled study in adult participants hospitalized for severe COVID-19.
Participants were assigned to treatment according to randomization list. Six RIPK1 Inhibitor 50 mg capsules (300 mg) or matching placebo capsules were administered orally in fasting or fed conditions twice a day (BID). For participants intubated with feeding tube in place, the IMPs were given as suspension by feeding tube.
The main secondary clinical assessments endpoints included: • Time to 50% decrease from baseline in CRP level • Time to improvement of oxygenation as measured by oxygen saturation≥92% breathing room air over 48 hours or until discharge • Change from baseline in SPO2/FiO2 ratio at Day 7
Other secondary clinical assessment endpoints included: • Number of Days without need for oxygen support and alive (oxygen saturation≥92% breathing room air) up to Day 28 • Numbers of Ventilator-free days and alive up to Day 28 • Change from baseline in markers of inflammation (White blood cell count, differential blood lymphocytes, neutrophil to lymphocyte ratio, IL-6) and D-Dimer at Day 7 and EOT • Incidence of Deaths up to Day 28 • Percentage of participants receiving thrombolytic treatment up to Day 28 • Percentage of participants receiving vasopressor treatment up to Day 28 • Numbers of Respiratory Failure-Free Days (RFFD) and alive up to Day 28
The time to improvement of oxygenation as measured by oxygen saturation>92% breathing room air over 48 hours or until discharge was estimated using the Kaplan-Meier approach and treatment arms were compared in an exploratory fashion using the log-rank test.
Presence of SO2≥92% without use of any supplemental oxygen device on two consecutive days (earliest occurrence) or at day of discharge was considered as event. If such criterion was not met, time to event was censored at the time point of the last observation of SpO2 collected. For participants who died during the study without experiencing the event, similar LOCF approached was used and a sensitivity analysis was performed as described in Section 1.7.1.1.2.1.
The number and percentage of participants who experience the event without applying censoring rules was reported at Days 3, 5, 7, 15 and 28.
The analysis of the change from baseline in SpO2/FiO2 ratio was based on a MMRM model fitted on observed values for Days 2, 3, 4, 5, 6, 7 and 15. The model included fixed effects for participant-specific SpO2/FiO2 ratio at baseline, respective visit, treatment group, and visit-by-treatment group interaction, and random effects for sites. Repeated measurements for each visit were taken within participant assuming an unstructured covariance pattern within treatment group.
The LS means for the difference in change from baseline at Day 7 between RIPK1 Inhibitor and placebo were provided, jointly with the corresponding 90% confidence interval.
The point estimate of the change from baseline in SpO2/FiO2 ratio and the difference between treatment groups and two-sided 90% confidence interval value were reported for Day 2 to 7 and EOT as described above. Time profile plots of point estimates of the change from baseline (+/−90% Cis) were presented by treatment group.
Missing values for the change from baseline in SpO2/FiO2 ratio were replaced following the LOCF approach, regardless if occurring before or after discontinuation/discharge/death. In case no LOCF could be identified (e.g., no post-baseline value prior to Day 2 to replace a missing Day 2 result), the missing value was not imputed. A sensitivity analysis was performed by repeating the above analysis without any imputation of missing values.

[1] = 600 mg, Baseline, Efficacy population
[2] = 600 mg, Day 2, Efficacy population
[3] = 600 mg, Day 3, Efficacy population
[4] = 600 mg, Day 4, Efficacy population
[5] = 600 mg, Day 5, Efficacy population
[6] = 600 mg, Day 6, Efficacy population
[7] = 600 mg, Day 7, Efficacy population
[8] = 600 mg, Day 8, Efficacy population
[9] = 600 mg, Day 9, Efficacy population
[10] = 600 mg, Day 10, Efficacy population
[11] = 600 mg, Day 11, Efficacy population
[12] = 600 mg, Day 12, Efficacy population
[13] = 600 mg, Day 13, Efficacy population
[14] = 600 mg, Day 14, Efficacy population
[15] = 600 mg, Day 15, Efficacy population
[16] = 600 mg, up to Day 28, Efficacy population

CN1C(=O)[C@@H](NC(=O)c2nnc(Cc3ccccc3)[nH]2)COc2cccnc21 [RIPK1 Inhibitor, (S)-5-benzyl-N-(5-methyl-4-oxo-2,3,4,5-tetrahydropyrido[3,2-b][1,4]oxazepin-3-yl)-4H-1,2,4-triazole-3-carboxamide]
difference of VFDs or RFFDs between the 2 treatment arms in favor of RIPK1 Inhibitor (600 mg vs placebo, based on mean values, 28-day study period): 3
difference in mean days (without oxygen support, VFDs, RFFDs) in favor of RIPK1 Inhibitor group (600 mg vs placebo, up to 15-day treatment period): 1 days
SpO2/FiO2 ratio, raw data, Mean [1]: 298.0
SpO2/FiO2 ratio, raw data, Median [1]: 306.3
SpO2/FiO2 ratio, change from baseline, Mean [2]: 16.8
SpO2/FiO2 ratio, change from baseline, Median [2]: 3.3
SpO2/FiO2 ratio, raw data, Mean [2]: 314.8
SpO2/FiO2 ratio, raw data, Median [2]: 290.9
Change from baseline in SpO2/FiO2 ratio, point estimate (600 mg, Day 02, Efficacy population): 72.02
median change from baseline in SpO2/FiO2 ratio (600 mg, Day 2): 3.3
SpO2/FiO2 ratio, change from baseline, Mean [3]: 43.9
SpO2/FiO2 ratio, change from baseline, Median [3]: 30.9
SpO2/FiO2 ratio, raw data, Mean [3]: 337.9
SpO2/FiO2 ratio, raw data, Median [3]: 330.6
median change in SpO2/FiO2 ratio from baseline (600 mg, Day 3): 29.0
Change from baseline in SpO2/FiO2 ratio, point estimate (600 mg, Day 03, Efficacy population): 97.90
SpO2/FiO2 ratio, change from baseline, Mean [4]: 50.8
SpO2/FiO2 ratio, change from baseline, Median [4]: 47.3
SpO2/FiO2 ratio, raw data, Mean [4]: 340.4
SpO2/FiO2 ratio, raw data, Median [4]: 355.5
median change in SpO2/FiO2 ratio from baseline (600 mg, Day 4): 38.1
Change from baseline in SpO2/FiO2 ratio, point estimate (600 mg, Day 04, Efficacy population): 104.61
median change from baseline in SpO2/FiO2 ratio (600 mg, Day 4): 47.3
SpO2/FiO2 ratio, change from baseline, Mean [5]: 62.7
SpO2/FiO2 ratio, change from baseline, Median [5]: 69.6
SpO2/FiO2 ratio, raw data, Mean [5]: 350.5
SpO2/FiO2 ratio, raw data, Median [5]: 356.1
median change in SpO2/FiO2 ratio from baseline (600 mg, Day 5): 70.8
Change from baseline in SpO2/FiO2 ratio, point estimate (600 mg, Day 05, Efficacy population): 121.79
SpO2/FiO2 ratio, change from baseline, Mean [6]: 72.5
SpO2/FiO2 ratio, change from baseline, Median [6]: 73.9
SpO2/FiO2 ratio, raw data, Mean [6]: 358.7
SpO2/FiO2 ratio, raw data, Median [6]: 384.0
median change in SpO2/FiO2 ratio from baseline (600 mg, Day 6): 113.8
Change from baseline in SpO2/FiO2 ratio, point estimate (600 mg, Day 06, Efficacy population): 134.66
Change from baseline in SpO2/FiO2 ratio, adjusted treatment difference RIPK1 Inhibitor vs placebo [6]: 28.71
median change from baseline in SpO2/FiO2 ratio (600 mg, Day 6): 73.9
SpO2/FiO2 ratio, change from baseline, Mean [7]: 89.2
SpO2/FiO2 ratio, change from baseline, Median [7]: 124.1
SpO2/FiO2 ratio, raw data, Mean [7]: 367.1
SpO2/FiO2 ratio, raw data, Median [7]: 418.2
median change in SpO2/FiO2 ratio from baseline (600 mg, Day 7): 115.3
Change from baseline in SpO2/FiO2 ratio, point estimate (600 mg, Day 07, Efficacy population): 142.21
Change from baseline in SpO2/FiO2 ratio, adjusted treatment difference RIPK1 Inhibitor vs placebo [7]: 25.24
median change from baseline in SpO2/FiO2 ratio (600 mg, Day 7): 124.1
SpO2/FiO2 ratio, change from baseline, Mean [8]: 99.2
SpO2/FiO2 ratio, change from baseline, Median [8]: 131.4
SpO2/FiO2 ratio, raw data, Mean [8]: 371.5
SpO2/FiO2 ratio, raw data, Median [8]: 433.3
median change in SpO2/FiO2 ratio from baseline (600 mg, Day 8): 125.6
SpO2/FiO2 ratio, change from baseline, Mean [9]: 111.2
SpO2/FiO2 ratio, change from baseline, Median [9]: 150.0
SpO2/FiO2 ratio, raw data, Mean [9]: 381.8
SpO2/FiO2 ratio, raw data, Median [9]: 445.2
SpO2/FiO2 ratio, change from baseline, Mean [10]: 119.8
SpO2/FiO2 ratio, change from baseline, Median [10]: 133.8
SpO2/FiO2 ratio, raw data, Mean [10]: 386.7
SpO2/FiO2 ratio, raw data, Median [10]: 447.6
SpO2/FiO2 ratio, change from baseline, Mean [11]: 111.0
SpO2/FiO2 ratio, change from baseline, Median [11]: 153.7
SpO2/FiO2 ratio, raw data, Mean [11]: 373.2
SpO2/FiO2 ratio, raw data, Median [11]: 445.2
SpO2/FiO2 ratio, change from baseline, Mean [12]: 138.8
SpO2/FiO2 ratio, change from baseline, Median [12]: 190.3
SpO2/FiO2 ratio, raw data, Mean [12]: 401.0
SpO2/FiO2 ratio, raw data, Median [12]: 452.4
SpO2/FiO2 ratio, change from baseline, Mean [13]: 129.1
SpO2/FiO2 ratio, change from baseline, Median [13]: 195.1
SpO2/FiO2 ratio, raw data, Mean [13]: 389.5
SpO2/FiO2 ratio, raw data, Median [13]: 457.1
SpO2/FiO2 ratio, change from baseline, Mean [14]: 139.4
SpO2/FiO2 ratio, change from baseline, Median [14]: 192.7
SpO2/FiO2 ratio, raw data, Mean [14]: 414.8
SpO2/FiO2 ratio, raw data, Median [14]: 454.8
SpO2/FiO2 ratio, change from baseline, Mean [15]: 160.6
SpO2/FiO2 ratio, change from baseline, Median [15]: 195.1
SpO2/FiO2 ratio, raw data, Mean [15]: 436.0
SpO2/FiO2 ratio, raw data, Median [15]: 457.1
median change in SpO2/FiO2 ratio from baseline (600 mg, Day 15): 135.1
Change from baseline in SpO2/FiO2 ratio, point estimate [15]: 174.65
median change from baseline in SpO2/FiO2 ratio (600 mg, Day 15): 195.1
median time to improvement of oxygenation (SpO2 >=92% breathing room air) (600 mg, Kaplan-Meier, Efficacy population): 6 days
Number of Days without need for Oxygen Support and Alive, Mean [16]: 20.5 days
Number of Days without need for Oxygen Support and Alive, Median [16]: 23.0 days
Number of Respiratory Failure-Free Days and Alive, Mean [16]: 25.9 days
Number of Respiratory Failure-Free Days and Alive, Median [16]: 28.0 days
Number of Ventilator-Free Days and Alive, Mean [16]: 26.0 days
Number of Ventilator-Free Days and Alive, Median [16]: 28.0 days
